The results in this text go back to publication PMC8871626, “UPLC-PDA-ESI-QTOF-MS/MS fingerprint of purified flavonoid enriched fraction of Bryophyllum pinnatum; antioxidant properties, anticholinesterase activity and in silico studies” (Pharmaceutical Biology, 2021).

Common to all, as to assay type: biochemical
Assay [1] can be described thus: DPPH radical scavenging assay. The following applies: for DPPH radical IC50: 3.125–100 µg/mL, 30 min in the dark, absorbance 518 nm, triplicate; for IC50: IC50 values in µM presented for comparison. The method, then: Based on the principle, when DPPH reacts with an antioxidant compound that can donate hydrogen, it is reduced. The change in colour from deep violet to golden/light yellow can be measured at 518 nm. Briefly, 1 mL of 0.3 mM of DPPH solution was added to 1 mL of each of the test solutions. […] The mixtures were vortexed thoroughly and allowed to stand at room temperature in the dark for 30 min, […]. The absorbance values were recorded at 518 nm, and converted into percentage antioxidant activity, using the formula below: Results were expressed as a percentage of inhibitions (100%). […] Each test was carried out in triplicates.
The % DPPH scavenging effect of the antioxidant was calculated as follows: (1) %DPPH scavenging effect=[A control – A sample/Acontrol]× 100
(In general: Loss of DPPH colour is used to gauge radical scavenging.)

The subject of assay [2] is Fe2+-induced lipid peroxidation in rat brain homogenate. In words: Fe2+-induced lipid peroxidation (TBARS) assay in brain homogenate. The following applies: for Lipid peroxidation IC50: FeSO4, 37 °C 30 min, TBARS 532 nm; for IC50: IC50 values in µM presented for comparison, read-out: LP (IC50 in µM). The protocol:
Thiobarbituric acid reactive species (TBARS) assay was used to measure the lipid peroxide formed using brain tissue homogenates as lipid-rich media, as described by Ruberto et al. ([2000]) with slight modifications. […] Thereafter, 0.05 mL of FeSO4 was added and the mixture was incubated at 37 °C for 30 min. Then, 1.5 mL of acetic acid was added, followed by 1.5 mL of TBA in SDS. The resulting mixture was mixed and heated at 95 °C for 60 min. After cooling, 5 mL of butanol was added and the mixture was centrifuged at 3000 rpm for 10 min. The absorbance of the organic upper layer was measured at 532 nm and the percentage inhibition was calculated with the formula: (2) %inhibition=[A control – A sample/Acontrol]×100

Another assay has as its target T1, rat serum BuChE (Rattus norvegicus, UniProt Q9JKC1).
T1 construct: from tissue; host or cells: rat blood (serum)
In words: BuChE inhibition, Ellman's colorimetric method. The note with it: BuChE IC50, rat blood enzyme, butyrylthiocholine iodide. Background: Ellman's reagent forms a yellow product with free thiols.

T1 sequence (Q9JKC1 24-597): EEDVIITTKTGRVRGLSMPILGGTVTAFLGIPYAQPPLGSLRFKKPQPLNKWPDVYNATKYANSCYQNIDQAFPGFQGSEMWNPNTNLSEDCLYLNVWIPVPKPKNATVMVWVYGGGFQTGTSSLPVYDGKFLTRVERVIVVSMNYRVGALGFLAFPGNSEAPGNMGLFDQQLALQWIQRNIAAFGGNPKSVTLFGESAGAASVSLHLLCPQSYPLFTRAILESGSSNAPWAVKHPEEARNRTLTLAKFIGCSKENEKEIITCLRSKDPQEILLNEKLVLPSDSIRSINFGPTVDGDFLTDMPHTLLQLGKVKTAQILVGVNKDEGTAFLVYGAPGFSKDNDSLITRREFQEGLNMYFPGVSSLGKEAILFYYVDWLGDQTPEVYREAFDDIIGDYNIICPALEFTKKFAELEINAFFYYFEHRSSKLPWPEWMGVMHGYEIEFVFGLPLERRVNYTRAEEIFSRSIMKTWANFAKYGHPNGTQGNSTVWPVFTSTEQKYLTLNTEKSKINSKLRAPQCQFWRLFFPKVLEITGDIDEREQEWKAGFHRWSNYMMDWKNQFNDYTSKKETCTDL
Method for rat serum BuChE: Whole-brain tissue from adult male Wistar rat was used as a source of AChE enzyme and a lipid-rich media for lipid peroxidation assay while rat blood tissue was used as a source of BuChE enzyme.
For the enzyme source, the rat brains were homogenized in a homogenizer with 10 volumes of a homogenization buffer (10 mM Tris-HCl, pH 7.2) containing 1 M NaCl, 50 mM MgCl2 and1% Triton X-100 and centrifuged at 10,000 rpm for 30 min. The resulting supernatants were collected, and the solution of these supernatants was used as an enzyme source. The temperature was maintained at 4 °C throughout the excretion procedure. The rate of AChE hydrolysis was monitored spectrophotometrically. […] Absorbance at 405 nm was recorded immediately after adding Ellman’s reaction mixture (3.5 mL; 0.5 mM acetylthiocholine, 1 mM DTNB) in a 50 mM sodium phosphate buffer (pH 8.0) to the reaction mixture. Readings were repeated for 30 min to verify the reaction. […] The percentage of AChE inhibition was calculated using the following formula: (3) %Cholinesterase inhibition=[A control – A sample/Acontrol]×100
Assessment of BuChE inhibition was performed as described in Equation (3) except that the enzyme solution was (100 μL) acetylthiocholine iodide was replaced with butyrylthiocholine iodide. All other reagents and conditions remained the same.

On to `O=C1O[C@H]([C@@H](O)CO)C(O)=C1O` [Ascorbic acid, ascorbic acid], for which, in assay [1], the “DPPH radical IC50” value is 10.186 ± 0.14 µg/mL and it took 57.8 ± 0.827 µM to reach half-maximal inhibition (IC50). For the same compound, in assay [2], the “Lipid peroxidation IC50” value worked out at 14.393 ± 0.54 µg/mL and the IC50 came to 81.72 ± 0.309 µM.
Consider `O=c1c(O)c(-c2ccc(O)c(O)c2)oc2cc(O)cc(O)c12` [Quercetin], for which, in assay [1], the “DPPH radical IC50” value is given as 13.803 ± 0.34 µg/mL and 45.7 ± 1.13 µM corresponded to half-maximal inhibition (IC50). The same compound showed a concentration for half-maximal inhibition (IC50) at rat serum BuChE of 80.5 µM. In addition, in assay [2], the “Lipid peroxidation IC50” value was 25.242 ± 1.97 µg/mL and the IC50 worked out at 83.51 ± 0.654 µM.

As usually defined, the IC50 is the midpoint of a concentration-inhibition curve.
